Measured values: ChEMBL document CHEMBL1201862, “PubChem BioAssay data set” (2004)
The source made the active and inactive calls.

Key:
Cytochrome P450 3A4 = Cytochrome P450 3A4 (Homo sapiens, UniProt P08684);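 note: CYP3A4 tested as one member of a cytochrome P450 panel screen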
[1] = cytotoxicity toward DRD oncogenic fibroblasts, dose response, cell-based, non-viral oncogenic, luminescence (AID 1934); format: functional; conditions: Homo sapiens
BJ [2] = experiment: cytotoxicity toward BJ-TERT fibroblasts, dose response, cell-based, RAS-independent, luminescence (AID 1933); format: functional; conditions: Homo sapiens
[3] = cytotoxicity in HEK-293T cells, dose response, cytotoxicity control for TCR NF-kB inhibitor project, luminescence, T-cell screen hits (AID 489026); format: functional, cell-based;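 note: cells exposed to compound about 14 hours before the viability readout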
BJ [4] = experiment: cells; format: functional, cell-based; conditions: Homo sapiens
BJ [5] = experiment: cytotoxicity toward BJ-TERT-LT-ST fibroblasts, dose response, cell-based, RAS-independent, luminescence (AID 1935); format: functional; conditions: Homo sapiens;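 note: BJ fibroblasts immortalized with TERT plus LT and ST oncogenes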
[6] = target: T1, Carboxy-terminal domain RNA polymerase II polypeptide A small phosphatase 1 (Homo sapiens, UniProt Q9GZU7); experiment: inhibitors of CTDSP1, concentration-response testing, biochemical assay, absorbance-based, actives from ultra-high-throughput screening (AID 540297); format: functional
T1 sequence (Q9GZU7 whole entry): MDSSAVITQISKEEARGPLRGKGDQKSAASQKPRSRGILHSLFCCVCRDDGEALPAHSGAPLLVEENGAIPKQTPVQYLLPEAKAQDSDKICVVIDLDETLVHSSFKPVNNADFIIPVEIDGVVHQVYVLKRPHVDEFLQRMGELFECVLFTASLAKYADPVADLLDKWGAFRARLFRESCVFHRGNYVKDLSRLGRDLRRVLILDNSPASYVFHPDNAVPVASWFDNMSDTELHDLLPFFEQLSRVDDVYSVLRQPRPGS

[7] = cytotoxicity toward NIH3T3 fibroblasts, dose response, counter-screen, cell-based, ATP luminescence, mouse fibroblasts (AID 2010); format: functional;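 note: cells exposed to compound for about 90 hours before reading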
cells [8] = format: functional, cell-based
[9] = NIH-3T3 fibroblast cytotoxicity, dose response, cytotoxicity control, cell-based, fluorescence, Alamar Blue, secondary assay (AID 2327); format: functional;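 note: NIH-3T3 mouse fibroblasts cultured with fluconazole at 8 µg/mL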
Cytochrome P450 2C19 = Cytochrome P450 2C19 (Homo sapiens, UniProt P33261); experiment: Cytochrome panel assay with activity outcomes. Panel member name: p450-cyp2c19 Compounds with AC50 equal or less than 10 uM are considered active; format: functional; conditions: read-out: AC50
[10] = system: Streptococcus sp. 'group A'; experiment: growth inhibition of control SK(-) GAS strain, dose response, counter-screen for streptokinase expression inhibitor project, luminescence, kanamycin, BacTiterGlo, confirmation (AID 1900); format: functional, organism-based
Cytochrome P450 2C9 = Cytochrome P450 2C9 (Homo sapiens, UniProt P11712)
Vero [11] = experiment: cells; format: functional, cell-based; conditions: Chlorocebus sabaeus
Vero [12] = experiment: cells; format: functional; conditions: Chlorocebus sabaeus
[13] = C. albicans growth with fluconazole, confirmation, fluorescence, retest (AID 2467); format: functional, cell-based
[14] = HepG2 cell cytotoxicity, dose response, cytotoxicity control for Shn3 inhibitor project, CellTiter-Glo, cherry-picked (AID 624134); format: functional, cell-based
[15] = Shn3 3'UTR reporter inhibitors, dose response, cell-based, Clone20 osteoblasts, firefly luciferase, cherry-picked (AID 624132); format: functional;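 note: firefly luciferase luminescence from reporter carrying the Shn3 3'UTR in osteoblasts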
[16] = inhibitors of SNCA 5'UTR-driven reporter translation, confirmation, H4 neuroglioma cells, luminescence (AID 1988); format: functional, cell-based
[17] = control 3'UTR Renilla luciferase suppression, dose response, counter-screen for Shn3 inhibitor project, cell-based, Clone20-Shn3RL, cherry-picked (AID 624133); format: functional
Beta-galactosidase = Beta-galactosidase (Escherichia coli, UniProt Q8VNN2); experiment: PubChem AID 485352; format: functional
[18] = inhibitors of intracellular T. cruzi replication, confirmation, NIH3T3 host cells, beta-gal luminescence (AID 2044); format: functional, cell-based;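 note: intracellular parasites grown in NIH/3T3 mouse fibroblasts as host cells; luminescent beta-galactosidase reporter signal from transgenic T. cruzi replicating inside host cells; inhibitors lower the luminescence signal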
[19] = target: T2, Type-1 angiotensin II receptor (Homo sapiens, UniProt P30556); experiment: AT1 receptor antagonists, dose response, selectivity assay for APJ receptor antagonist project, cell-based, uHTS hits (AID 463214); format: functional;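 note: antagonist potency against angiotensin II stimulated AT1 response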
T2 sequence (P30556 whole entry): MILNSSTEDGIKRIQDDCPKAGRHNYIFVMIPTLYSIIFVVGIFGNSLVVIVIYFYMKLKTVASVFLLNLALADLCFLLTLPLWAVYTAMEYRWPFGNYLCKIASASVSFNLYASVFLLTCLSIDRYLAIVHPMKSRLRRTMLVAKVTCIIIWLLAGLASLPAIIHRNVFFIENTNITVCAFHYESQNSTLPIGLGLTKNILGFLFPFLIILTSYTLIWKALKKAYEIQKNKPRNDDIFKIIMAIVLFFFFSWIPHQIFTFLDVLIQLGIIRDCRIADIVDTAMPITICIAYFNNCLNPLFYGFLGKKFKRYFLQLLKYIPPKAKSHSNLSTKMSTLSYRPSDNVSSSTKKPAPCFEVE

Streptococcus = experiment: Group A Streptococcus viability loss, dose response, counter-screen for streptokinase expression inhibitor project, luminescence, BacTiterGlo (AID 1915); format: functional, organism-based;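 note: potency for reduction of bacterial viability or growth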
[20] = Luminescence Cell-Based Dose Response HTS to Identify Inhibitors of 5'UTR Stem-Loop Driven Prion Protein mRNA Translation in H4 Neuroglioblastoma Cells. [Related pubchem assays: 1827 (Project Summary), 1813 (Primary HTS)]; format: functional
cells [21] = format: functional, cell-based; remark: listed apart in the source
[22] = inhibitors of firefly luciferase expression or activity, dose response, H4 neuroglioma cells, luminescence (AID 1990); format: functional, cell-based
Cytochrome P450 1A2 = target: T3, Cytochrome P450 1A2 (Homo sapiens, UniProt P05177);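 note: PubChem cytochrome P450 panel assay, CYP1A2 panel member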
T3 sequence (P05177 whole entry): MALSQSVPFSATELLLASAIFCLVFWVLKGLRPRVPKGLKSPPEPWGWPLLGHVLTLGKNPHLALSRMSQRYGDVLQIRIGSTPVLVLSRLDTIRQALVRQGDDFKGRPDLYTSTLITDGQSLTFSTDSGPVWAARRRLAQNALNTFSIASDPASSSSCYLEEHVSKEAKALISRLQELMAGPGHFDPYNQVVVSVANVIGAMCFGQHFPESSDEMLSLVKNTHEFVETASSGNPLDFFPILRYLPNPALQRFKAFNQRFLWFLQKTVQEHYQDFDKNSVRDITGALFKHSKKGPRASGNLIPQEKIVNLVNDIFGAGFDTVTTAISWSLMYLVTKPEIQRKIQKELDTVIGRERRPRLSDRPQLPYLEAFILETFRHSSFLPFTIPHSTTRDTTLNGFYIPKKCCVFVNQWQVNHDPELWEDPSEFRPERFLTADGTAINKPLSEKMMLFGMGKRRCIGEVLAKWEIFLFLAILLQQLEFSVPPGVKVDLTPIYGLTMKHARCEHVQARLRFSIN

[23] = target: T4, High affinity choline transporter 1 (Homo sapiens, UniProt Q9GZV3); experiment: CHT inhibitors, dose response, cell-based, 5-point CRC, membrane potential dye (AID 504840); format: functional
T4 sequence (Q9GZV3 whole entry): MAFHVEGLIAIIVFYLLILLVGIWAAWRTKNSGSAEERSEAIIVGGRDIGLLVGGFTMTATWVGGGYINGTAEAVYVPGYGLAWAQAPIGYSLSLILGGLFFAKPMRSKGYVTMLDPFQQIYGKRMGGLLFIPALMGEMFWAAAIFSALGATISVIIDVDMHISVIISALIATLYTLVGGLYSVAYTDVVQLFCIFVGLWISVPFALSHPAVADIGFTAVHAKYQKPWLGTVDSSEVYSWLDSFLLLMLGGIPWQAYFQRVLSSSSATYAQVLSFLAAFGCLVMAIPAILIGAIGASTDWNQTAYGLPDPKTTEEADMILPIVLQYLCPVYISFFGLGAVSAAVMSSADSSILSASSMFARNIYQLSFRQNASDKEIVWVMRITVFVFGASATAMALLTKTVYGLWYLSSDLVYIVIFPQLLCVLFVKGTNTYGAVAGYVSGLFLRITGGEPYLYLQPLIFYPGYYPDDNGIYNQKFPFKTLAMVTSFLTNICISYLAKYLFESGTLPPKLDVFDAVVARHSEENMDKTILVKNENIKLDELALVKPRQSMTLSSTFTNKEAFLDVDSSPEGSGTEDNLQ

[24] = Counterscreen for inhibitors of Trypanosoma brucei methionyl tRNA synthetase (MetRS): Luminescence-based cell-based high throughput dose response assay to identify compounds that are cytotoxic to Jurkat human T lymphocyte cells.; format: functional
[25] = target: T5, Methionyl-tRNA synthetase, putative (Trypanosoma brucei brucei, UniProt Q38C91); format: functional, Trypanosoma brucei brucei strain 927/4 GUTat10.1
T5 sequence (Q38C91 whole entry): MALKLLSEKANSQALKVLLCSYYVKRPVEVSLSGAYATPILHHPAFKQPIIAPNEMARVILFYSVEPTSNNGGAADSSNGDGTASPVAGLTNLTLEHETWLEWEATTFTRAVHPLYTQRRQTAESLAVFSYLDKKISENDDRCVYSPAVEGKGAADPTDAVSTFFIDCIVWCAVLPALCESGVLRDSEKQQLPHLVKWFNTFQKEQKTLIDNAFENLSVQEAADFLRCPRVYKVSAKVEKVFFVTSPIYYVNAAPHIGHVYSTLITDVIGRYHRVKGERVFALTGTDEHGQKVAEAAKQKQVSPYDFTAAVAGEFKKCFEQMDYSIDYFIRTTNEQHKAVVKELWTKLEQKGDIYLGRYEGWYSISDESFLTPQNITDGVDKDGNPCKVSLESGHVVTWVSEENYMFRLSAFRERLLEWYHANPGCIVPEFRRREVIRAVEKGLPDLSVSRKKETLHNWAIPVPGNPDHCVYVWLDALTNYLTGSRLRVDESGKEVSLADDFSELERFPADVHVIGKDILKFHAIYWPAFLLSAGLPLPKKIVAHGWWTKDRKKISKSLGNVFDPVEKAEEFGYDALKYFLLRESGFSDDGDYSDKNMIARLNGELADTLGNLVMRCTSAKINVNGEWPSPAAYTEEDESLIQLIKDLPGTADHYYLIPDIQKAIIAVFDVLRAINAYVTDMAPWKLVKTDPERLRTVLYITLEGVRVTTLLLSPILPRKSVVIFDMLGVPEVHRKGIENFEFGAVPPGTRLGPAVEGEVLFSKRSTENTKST

[26] = target: T5, Methionyl-tRNA synthetase, putative; format: functional, Trypanosoma brucei brucei strain 927/4 GUTat10.1; remark: listed apart in the source
Melanocortin receptor 4 = Melanocortin receptor 4 (Homo sapiens, UniProt P32245); format: functional, cell-based;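 note: Cell-based assay with luminescence read-out, confirmatory dose-response testing for agonist activity of biased ligands at MC4R; human U2OS cells with tagged receptor and beta-arrestin; potency of agonists that increase receptor coupling to beta-arrestin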
[27] = target: NAD-dependent protein deacylase sirtuin-5, mitochondrial (Homo sapiens, UniProt Q9NXA8); experiment: SIRT5 desuccinylase inhibitors, dose response, biochemical, fluorescence imaging, cherry-pick, set 5 (AID 720591);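 note: desuccinylation of succinyl peptide AMC substrate read as fluorescence after trypsin release; potency of inhibitors that lower fluorescence and may act on trypsin instead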
NAD-dependent protein deacylase sirtuin-5, mitochondrial, sequence (Q9NXA8 whole entry): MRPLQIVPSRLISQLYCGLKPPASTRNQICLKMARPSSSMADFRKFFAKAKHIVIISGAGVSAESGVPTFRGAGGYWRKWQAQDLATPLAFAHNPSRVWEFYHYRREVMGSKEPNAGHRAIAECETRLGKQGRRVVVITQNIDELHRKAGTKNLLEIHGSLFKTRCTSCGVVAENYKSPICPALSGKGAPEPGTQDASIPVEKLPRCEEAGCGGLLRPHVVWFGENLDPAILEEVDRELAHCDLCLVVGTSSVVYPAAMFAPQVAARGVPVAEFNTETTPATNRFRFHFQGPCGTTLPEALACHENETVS

Cytochrome P450 3A4, sequence (P08684 whole entry): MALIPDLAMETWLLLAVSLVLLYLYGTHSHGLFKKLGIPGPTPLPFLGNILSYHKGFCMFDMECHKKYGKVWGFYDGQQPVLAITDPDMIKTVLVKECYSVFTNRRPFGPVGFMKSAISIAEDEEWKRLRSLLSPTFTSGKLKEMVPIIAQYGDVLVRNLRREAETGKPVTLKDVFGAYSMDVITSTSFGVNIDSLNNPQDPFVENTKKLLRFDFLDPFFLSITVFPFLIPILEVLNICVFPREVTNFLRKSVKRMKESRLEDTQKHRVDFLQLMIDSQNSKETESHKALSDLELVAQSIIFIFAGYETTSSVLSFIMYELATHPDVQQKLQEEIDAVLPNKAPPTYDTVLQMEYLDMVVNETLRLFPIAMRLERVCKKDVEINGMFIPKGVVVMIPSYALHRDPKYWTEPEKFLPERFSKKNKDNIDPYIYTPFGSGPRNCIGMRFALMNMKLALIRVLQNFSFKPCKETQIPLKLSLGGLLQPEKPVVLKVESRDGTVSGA
Melanocortin receptor 4, sequence (P32245 whole entry): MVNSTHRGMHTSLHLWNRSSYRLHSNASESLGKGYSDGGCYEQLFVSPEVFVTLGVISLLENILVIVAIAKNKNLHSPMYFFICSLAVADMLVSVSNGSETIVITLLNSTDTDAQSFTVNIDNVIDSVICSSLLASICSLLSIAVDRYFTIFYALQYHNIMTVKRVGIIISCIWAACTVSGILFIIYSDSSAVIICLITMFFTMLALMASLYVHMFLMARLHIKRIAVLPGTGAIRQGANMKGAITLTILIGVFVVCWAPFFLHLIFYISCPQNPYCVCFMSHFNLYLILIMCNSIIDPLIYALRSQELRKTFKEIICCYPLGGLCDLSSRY
Beta-galactosidase, sequence (Q8VNN2 whole entry): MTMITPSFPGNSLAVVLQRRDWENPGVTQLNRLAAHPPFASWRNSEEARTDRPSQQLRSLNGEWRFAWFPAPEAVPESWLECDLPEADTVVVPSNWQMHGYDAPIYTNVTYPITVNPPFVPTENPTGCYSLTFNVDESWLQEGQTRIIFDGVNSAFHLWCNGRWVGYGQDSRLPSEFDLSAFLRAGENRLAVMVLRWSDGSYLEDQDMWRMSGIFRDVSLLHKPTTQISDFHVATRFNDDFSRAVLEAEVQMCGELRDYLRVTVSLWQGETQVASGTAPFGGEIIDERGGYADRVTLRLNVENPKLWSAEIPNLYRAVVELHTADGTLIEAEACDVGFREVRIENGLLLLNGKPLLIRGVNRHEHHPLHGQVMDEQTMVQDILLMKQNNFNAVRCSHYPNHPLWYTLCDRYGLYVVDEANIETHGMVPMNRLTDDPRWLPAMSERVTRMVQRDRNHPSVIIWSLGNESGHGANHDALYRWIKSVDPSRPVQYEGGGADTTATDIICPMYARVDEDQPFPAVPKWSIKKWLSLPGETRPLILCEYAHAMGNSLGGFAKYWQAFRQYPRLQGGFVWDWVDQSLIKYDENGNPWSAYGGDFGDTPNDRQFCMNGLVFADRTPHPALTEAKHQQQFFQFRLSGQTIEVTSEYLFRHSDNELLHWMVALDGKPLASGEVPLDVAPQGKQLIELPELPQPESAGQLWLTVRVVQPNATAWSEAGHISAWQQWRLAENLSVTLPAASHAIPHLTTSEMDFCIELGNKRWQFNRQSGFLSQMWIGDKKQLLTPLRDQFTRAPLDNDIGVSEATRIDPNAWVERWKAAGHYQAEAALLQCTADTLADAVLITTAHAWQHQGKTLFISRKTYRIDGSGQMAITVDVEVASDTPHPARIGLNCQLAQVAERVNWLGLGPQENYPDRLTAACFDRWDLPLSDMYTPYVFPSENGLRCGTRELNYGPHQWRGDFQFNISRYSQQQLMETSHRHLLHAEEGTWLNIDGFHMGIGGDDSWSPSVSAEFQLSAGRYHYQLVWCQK
Cytochrome P450 2C9, sequence (P11712 whole entry): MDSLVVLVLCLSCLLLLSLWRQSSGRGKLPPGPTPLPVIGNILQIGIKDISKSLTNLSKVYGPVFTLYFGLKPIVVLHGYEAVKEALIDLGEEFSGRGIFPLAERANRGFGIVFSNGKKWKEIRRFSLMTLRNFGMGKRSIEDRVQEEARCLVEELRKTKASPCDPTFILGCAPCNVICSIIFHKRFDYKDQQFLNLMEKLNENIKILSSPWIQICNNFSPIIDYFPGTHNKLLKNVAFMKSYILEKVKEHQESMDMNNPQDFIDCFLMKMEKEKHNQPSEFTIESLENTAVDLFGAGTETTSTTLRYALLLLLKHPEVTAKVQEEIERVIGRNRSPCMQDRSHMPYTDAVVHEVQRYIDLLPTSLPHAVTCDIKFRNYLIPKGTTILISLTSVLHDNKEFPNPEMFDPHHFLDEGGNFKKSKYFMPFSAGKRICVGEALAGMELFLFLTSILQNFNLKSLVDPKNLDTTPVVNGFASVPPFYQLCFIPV
Cytochrome P450 2C19, sequence (P33261 whole entry): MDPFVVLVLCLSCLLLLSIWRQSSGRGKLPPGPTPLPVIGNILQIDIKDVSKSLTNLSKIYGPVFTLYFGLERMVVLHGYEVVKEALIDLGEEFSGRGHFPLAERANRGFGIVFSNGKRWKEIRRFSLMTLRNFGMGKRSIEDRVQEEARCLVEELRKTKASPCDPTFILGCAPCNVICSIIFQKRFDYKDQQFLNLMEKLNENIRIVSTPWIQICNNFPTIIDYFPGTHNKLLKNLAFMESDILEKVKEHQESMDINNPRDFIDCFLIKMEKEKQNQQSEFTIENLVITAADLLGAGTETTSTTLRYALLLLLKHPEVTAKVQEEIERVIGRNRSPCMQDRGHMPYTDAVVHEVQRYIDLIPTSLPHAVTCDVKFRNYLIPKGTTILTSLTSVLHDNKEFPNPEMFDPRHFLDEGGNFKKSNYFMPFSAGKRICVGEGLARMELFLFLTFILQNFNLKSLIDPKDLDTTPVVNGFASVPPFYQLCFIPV

For `O=C(c1csnn1)N1CCC2(CC1)CN(c1ccccn1)C2`, the AC50 (Cytochrome P450 3A4) was “inconclusive”.
In the case of `CCOc1ccccc1C1CC(=O)Nc2cc(C)c(C)cc21` (centres undefined), the EC50 [1] is reported as 18.1 µM (active), the EC50 (BJ [2]) is reported as 14 µM (active) and the IC50 [3] is reported as > 80 µM (inactive). For the same molecule, the EC50 (BJ [4]) was 53.3 µM (active) and the EC50 (BJ [5]) was 23.5 µM (active).
For `C=CCn1c(COc2ccc(F)cc2)nnc1SCC(=O)NC(=O)NCc1ccco1`, the IC50 [6] was 15.9 µM (active).
With `Cc1nc(-n2nc3c(c2O)CCCC3)[nH]c(=O)c1Cc1ccccc1` the EC50 [7] was 1.06 µM (active), the EC50 (cells [8]) was 16.8 µM (active) and the EC50 [9] was > 150 µM (inconclusive). The AC50 (Cytochrome P450 2C19) was 25.1 µM (inconclusive), the EC50 [10] was 1.14 µM (active) and the AC50 (Cytochrome P450 3A4) was “inconclusive”. For the same molecule, the AC50 (Cytochrome P450 2C9) was 4.47 µM (inconclusive), the IC50 (Vero [11]) was > 25 µM (active) and the CC50 (Vero [12]) was 9.47 µM (active). The EC50 [13] was 0.554 µM (active), the AC50 [14] was 57 µM (active) and the AC50 [15] was 4.44 µM (active). For the same molecule, the EC50 [16] was 6.76 µM (active), the AC50 [17] was 2.37 µM (active) and the EC50 (Beta-galactosidase) was > 40 µM (inactive). For the same molecule, the EC50 [18] was 1.17 µM (active), the IC50 [19] was 14.2 µM (active) and the EC50 (Streptococcus) was 4.47 µM (active). The EC50 [20] was 14.9 µM (active), the EC50 (cells [21]) was > 350 µM (not active) and the EC50 [22] was 8.07 µM (active). For the same molecule, the AC50 (Cytochrome P450 1A2) was 14.1 µM (inconclusive).
In the case of `COC(=O)C1=COC(OC2OC(CO)C(O)C(O)C2O)C2C1C=CC2(O)CO` (centres undefined), the IC50 [6] is reported as 3.19 µM (active).
With `O=C1C2CCCN2C(c2cccs2)N1c1ccc(Cl)cc1` (centres undefined) the IC50 (Vero [11]) was 17.1 µM (active), the EC50 [16] was 49.9 µM (active) and the EC50 [20] was 17 µM (active). The EC50 [22] was 45.2 µM (active).
For `O=C(NNC(=O)c1ccc(NC(=O)c2ccccc2)cc1)Nc1ccccc1`, the IC50 [6] was 7.38 µM (active).
With `Cc1cc(C)nc(SCc2cc(=O)c(OC(=O)c3ccco3)co2)n1` the IC50 [23] was 12.3 µM (active).
In the case of `Cn1c(S)nnc1CCNC(=O)c1ccccc1Cl`, the AC50 (Cytochrome P450 3A4) is reported as “inconclusive”.
With `Cc1ccc(-c2c[nH]c(C(O)c3cc(Cl)cc(Cl)c3)n2)cc1` (centres undefined) the IC50 [24] was 74.7 µM (inactive), the IC50 [25] was 6.3 µM (active) and the IC50 [26] was 15.3 µM (inactive).
For `Cc1c(NS(=O)(=O)c2cc(C(=O)NCc3cccc(Cl)c3)ccc2Cl)c(=O)n(-c2ccccc2)n1C`, the IC50 [24] was 83.3 µM (inactive), the IC50 [25] was 26.8 µM (inactive) and the IC50 [26] was 94.9 µM (inactive).
In the case of `COc1ccccc1-c1cc(NC(C)=O)c2ncc(-c3cccc(C(F)(F)F)c3)n2c1`, the EC50 (Melanocortin receptor 4) is reported as > 89.2 µM (inactive).
With `COc1ccc(-c2cc(NC(C)=O)c3ncc(-c4ccc(F)cc4)n3c2)cc1OC` the EC50 (Melanocortin receptor 4) was > 89.2 µM (inactive).
In the case of `Cc1ccc(S(=O)(=O)OCC(=O)Nc2ccc(C(=O)O)c(O)c2)cc1`, the IC50 [6] is reported as 4.64 µM (active) and the AC50 [27] is reported as 4.19 µM (active).
With `COC(=O)c1cc2c(cn1)[nH]c1ccccc12` [BETA-CCM] the AC50 (Cytochrome P450 3A4) was “inconclusive”.
With `COc1cc2nc(N3CCN(C(=O)c4ccco4)CC3)nc(N)c2cc1OC` [PRAZOSIN] the AC50 (Cytochrome P450 3A4) was “inconclusive”.
